The values below come from paper PMC11109624, “Celastrol Ameliorates Neuronal Mitochondrial Dysfunction Induced by Intracerebral Hemorrhage via Targeting cAMP‐Activated Exchange Protein‐1” (Advanced Science, 2024).

This assay deals with T1, cNMP-EPAC-1 (cNMP domain of EPAC-1, 149-318) (Homo sapiens, UniProt O95398).
T1 construct: gene RAPGEF3; pGEX4T1 N-terminal GST tag, removed by protease; E. coli BL21(DE3); glutathione, Ni-NTA and Superdex 75
T1 sequence (O95398 191-360): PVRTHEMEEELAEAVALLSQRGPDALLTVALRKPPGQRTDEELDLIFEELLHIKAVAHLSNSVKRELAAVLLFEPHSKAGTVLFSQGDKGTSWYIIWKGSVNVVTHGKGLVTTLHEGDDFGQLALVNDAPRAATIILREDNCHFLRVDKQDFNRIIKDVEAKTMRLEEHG
Kind of assay: isothermal titration calorimetry (MicroCal iTC200). The class given is binding.

As a reminder, the Kd is the concentration at which binding is half-saturated. The low end stands for higher affinity, the high end for lower affinity. For the compound `CC1=C(O)C(=O)C=C2C1=CC=C1[C@@]2(C)CC[C@@]2(C)[C@@H]3C[C@](C)(C(=O)O)CC[C@]3(C)CC[C@]12C` [celastrol], the Kd is 1570 nM.
